Source: US20020049250A1, “PPAR receptor activator compounds for treating cutaneous disorders/afflictions” (priority 1999, published 2002)

What was measured:
Type in all cases: cell-based
PPAR-α = target: T1, PPAR-α (Homo sapiens, UniProt Q07869); test: PPAR-type receptor transactivation test (luciferase reporter), PPAR-α; conditions: for Emax: HeLa, 24 h, read-out: % activation α; for AC50 / % activation α: cotransfected HeLa cells treated 24 hours; for AC50: luciferase, concentration giving 50% of the activity of reference molecule; for % activation α: luciferase activity, relative to reference molecule Reference 1
T1 construct: expressed in transfected cells; host or cells: HeLa cells
T1 sequence (Q07869 1-468): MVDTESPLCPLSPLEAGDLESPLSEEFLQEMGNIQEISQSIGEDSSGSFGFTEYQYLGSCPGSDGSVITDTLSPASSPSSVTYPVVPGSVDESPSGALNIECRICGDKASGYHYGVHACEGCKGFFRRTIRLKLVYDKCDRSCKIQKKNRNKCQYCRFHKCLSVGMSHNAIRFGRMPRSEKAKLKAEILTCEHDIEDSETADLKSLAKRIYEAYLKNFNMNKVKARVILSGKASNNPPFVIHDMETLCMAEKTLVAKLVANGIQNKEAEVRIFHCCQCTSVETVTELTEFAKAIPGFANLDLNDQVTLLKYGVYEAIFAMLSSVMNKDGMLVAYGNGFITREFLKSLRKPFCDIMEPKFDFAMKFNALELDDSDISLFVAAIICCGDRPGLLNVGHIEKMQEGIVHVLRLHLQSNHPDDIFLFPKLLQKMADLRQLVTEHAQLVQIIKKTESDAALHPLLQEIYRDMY
Protocol: (§1) This activity is determined with the aid of a reporter enzyme (luciferase) for activation due to the compound via one of the PPAR receptors.
(§2) The biological tests carried out correspond to those described above. […] Thus, the activating power via PPAR-α, PPAR-γ or PPAR-δ of molecules may be evaluated with a transactivation test in which HeLa cells were cotransfected with an expression vector encoding these receptors and a reporter plasmid containing a PPRE response element cloned upstream of part of an SV40 virus promoter and of the luciferase gene. The cotransfected cells were treated for 24 hours with the molecules to be tested and the luciferase activity was determined by luminescence.

PPAR-γ = target: T2, PPAR-γ (Homo sapiens, UniProt P37231); test: PPAR-type receptor transactivation test (luciferase reporter), PPAR-γ; conditions: for Emax: HeLa, 24 h, read-out: % activation γ; for AC50 / % activation γ: cotransfected HeLa cells treated 24 hours; for AC50: luciferase, concentration giving 50% of the activity of reference molecule; for % activation γ: luciferase activity, relative to reference molecule Reference 2
T2 construct: expressed in transfected cells; host or cells: HeLa cells
T2 sequence (P37231 1-505): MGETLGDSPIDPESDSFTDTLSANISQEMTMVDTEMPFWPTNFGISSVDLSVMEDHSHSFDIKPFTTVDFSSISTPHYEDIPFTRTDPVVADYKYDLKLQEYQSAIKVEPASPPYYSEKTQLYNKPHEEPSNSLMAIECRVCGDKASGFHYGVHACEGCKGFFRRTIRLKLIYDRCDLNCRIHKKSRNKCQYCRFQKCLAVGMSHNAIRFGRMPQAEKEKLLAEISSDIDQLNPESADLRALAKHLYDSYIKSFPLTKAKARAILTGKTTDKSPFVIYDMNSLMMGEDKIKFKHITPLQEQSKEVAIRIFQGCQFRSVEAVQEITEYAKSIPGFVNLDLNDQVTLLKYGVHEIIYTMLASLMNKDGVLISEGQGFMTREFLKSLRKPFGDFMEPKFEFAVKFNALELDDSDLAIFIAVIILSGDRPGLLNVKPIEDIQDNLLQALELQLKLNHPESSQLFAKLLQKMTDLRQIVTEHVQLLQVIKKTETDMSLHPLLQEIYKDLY
Protocol: as §1, §2

PPAR-β = target: T3, PPAR-β (Homo sapiens, UniProt Q03181); test: PPAR-type receptor transactivation test (luciferase reporter), PPAR-β; conditions: for Emax: HeLa, 24 h, read-out: % activation β; for AC50 / % activation β: cotransfected HeLa cells treated 24 hours; for AC50: luciferase, concentration giving 50% of the activity of reference molecule; for % activation β: luciferase activity, relative to reference molecule Reference 2
T3 construct: expressed in transfected cells; host or cells: HeLa cells
T3 sequence (Q03181 1-441): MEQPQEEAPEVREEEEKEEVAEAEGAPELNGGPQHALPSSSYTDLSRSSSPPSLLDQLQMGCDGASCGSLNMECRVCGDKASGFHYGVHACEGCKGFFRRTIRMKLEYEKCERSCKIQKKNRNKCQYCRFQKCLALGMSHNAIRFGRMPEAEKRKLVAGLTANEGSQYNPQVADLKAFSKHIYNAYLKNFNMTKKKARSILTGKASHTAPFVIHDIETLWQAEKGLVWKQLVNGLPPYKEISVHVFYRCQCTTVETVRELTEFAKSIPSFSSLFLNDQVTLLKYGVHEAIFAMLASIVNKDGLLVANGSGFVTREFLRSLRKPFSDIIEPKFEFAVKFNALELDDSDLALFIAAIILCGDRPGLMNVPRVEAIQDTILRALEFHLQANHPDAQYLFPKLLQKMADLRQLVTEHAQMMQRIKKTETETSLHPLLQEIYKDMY
Protocol: as §1, §2

Molecule	Emax (PPAR-α) [%]	AC50 (PPAR-α) [nM]	Emax (PPAR-γ) [%]	AC50 (PPAR-γ) [nM]	Emax (PPAR-β) [%]	AC50 (PPAR-β) [nM]	% activation α (PPAR-α) [%]	% activation γ (PPAR-γ) [%]	% activation β (PPAR-β) [%]
COc1ccc(C(O)c2ccc(C(=O)O)cc2)cc1C12CC3CC(CC(C3)C1)C2 (stereo not shown) [Comparative Example 6, 4-[(3-adamantan-1-yl-4-methoxyphenyl)hydroxymethyl]benzoic acid]	4	–	7	–	16	–	–	–	–
CC1(C)CCc2cc(C(=O)c3ccc4cc(C(=O)O)ccc4c3)ccc2O1 [Compound 2, 6-(2,2-dimethylchroman-6-carbonyl)naphthalene-2-carboxylic acid]	48	900	190	1500	280	700	–	–	–
COc1ccc(C(=O)c2ccc3cc(C(=O)O)ccc3c2)cc1-c1ccccc1 [Comparative Example 4, 6-(6-methoxybiphenyl-3-carbonyl)napthalene-2-carboxylic acid]	–	–	–	–	–	–	6	2	23
CCCCOC(c1ccc2c(c1)C(C)(C)CCC2(C)C)c1ccc2cc(C(=O)O)ccc2c1 (stereo not shown) [Comparative Example 1, 6-[butoxy(5,5,8,8-tetramethyl-5,6,7,8-tetrahydronaphthalen-2-yl)methyl]naphthalene-2-carboxylic acid]	0	–	7	–	28	–	–	–	–
CC(C)(C)c1ccc(C(=O)c2ccc3cc(C(=O)O)ccc3c2)cc1 [Compound 3, 6-(4-tert-butylbenzoyl)naphthalene-2-carboxylic acid]	63	1000	148	360	277	300	–	–	–

Second part, the molecule after the results:

Emax (PPAR-α) [%]	AC50 (PPAR-α) [nM]	Emax (PPAR-γ) [%]	AC50 (PPAR-γ) [nM]	Emax (PPAR-β) [%]	AC50 (PPAR-β) [nM]	% activation α (PPAR-α) [%]	% activation γ (PPAR-γ) [%]	% activation β (PPAR-β) [%]	Molecule
40	2000	174	800	291	500	–	–	–	O=C(O)c1ccc2cc(C(=O)c3ccc4c(c3)CCCC4)ccc2c1 [Compound 4, 6-(5,6,7,8-tetrahydronaphthalene-2-carbonyl)naphthalene-2-carboxylic acid]
–	–	–	–	–	–	1	13	1	C-(6-carboxynaphthalen-2-yl)-C-(5,5,8,8-tetramethyl-5,6,7,8-tetrahydronaphthalen-2-yl)methylammonium [compound 2]
6	–	3	–	8	–	–	–	–	COc1cc(C(=O)c2ccc3cc(C(=O)O)ccc3c2)ccc1C12CC3CC(CC(C3)C1)C2 [compound 5, 6-(4-adamantan-1-yl-3-methoxybenzoyl)naphthalene-2-carboxylic acid]
–	–	–	–	–	–	6	3	19	6-(2,4-diisopropylbenzoyl)napthalene-2-carboxylic acid [compound 3]
–	–	–	–	–	–	100	–	–	Cc1cccc(Nc2cc(Cl)nc(SCC(=O)O)n2)c1C [Reference 1, [4-chloro-6-(2,3-dimethylphenylamino)pyrimidin-2-ylsulphanyl]acetic acid]
16	–	36	–	92	–	–	–	–	CC1(C)CCOc2ccc(C(=O)c3ccc4cc(C(=O)O)ccc4c3)cc21 [Compound 5, 6-(4,4-dimethylchroman-6-carbonyl)naphthalene-2-carboxylic acid]
0	–	0	–	23	–	–	–	–	COc1ccc(C(=O)c2ccc(C(=O)O)cc2)cc1C12CC3CC(CC(C3)C1)C2 [compound 7, 4-(3-adamantan-1-yl-4-methoxybenzoyl)benzoic acid]
